Data on 19 compounds can be found in patent US5726302A, “Water soluble adenosine kinase inhibitors” (Gensia Inc., priority 1995, dated 1998).

Structures can show the parent of a compound that is named as a salt.

A short description of series [1]: Water solubility. It is filed as physicochemical. How it is done: The sample was sonicated for a period of up to 20 minutes. If a solution was not obtained, further solvent was added and the process was repeated until a clear solution was obtained, and the results were recorded. Solutions used were 50 mM potassium biphthalate (pH 4); 100 mM glycine (pH 9); 25 mM sodium carbonate and 25 mM sodium bicarbonate (pH 10); or deionized water (DI).

Series [2] addresses partially purified pig heart adenosine kinase (Sus scrofa, UniProt A0A5G2R0F5). In words: biochemical. Conditions: pig heart adenosine kinase; 0.5 μM adenosine, pH 7.0, 20 minutes at 37° C; read-out: AK Inhibition (IC50). How it is done:
Adenosine kinase activity was measured essentially as described by Yamada et al Biochim. Biophys. Acta 660, 36-43 (1988) with a few minor modifications. Assay mixtures contained 50 mM TRIS-maleate buffer, pH 7.0, 0.1% BSA, 1 mM ATP 1 mM MgCl2, 0.5 μM [U-^14 C] adenosine (400-600 mCi/mmol) and varying duplicate concentrations of inhibitor. The reactions were initiated by addition of approximately 0.1 μU partially purified pig heart adenosine kinase, where one unit is defined as that amount of enzyme required to phosphorylate 1 μmol adenosine per minute. The reactions were incubated for 20 minutes at 37° C. The assay was quenched upon spotting 30 μL aliquots onto 2 cm^2 pieces of Whatman DE81 anion exchange paper. The paper squares were washed for 3 minutes in 6 L distilled/deionized water to remove the unreacted adenosine. […] The amount of ^14 C-AMP was quantified by scintillation counting.

Series [3] concerns Rats. As to the kind of experiment: Anti-inflammatory activity, carrageenan paw. The class given is in vivo, rat. The settings on record: 10 mg/kg, swelling after 3 hours. How it is done: Carrageenan (Type λ) was suspended in sterile PBS at 1% (w/v), autoclaved for 30 minutes, and stored at room temperature. Rats were pretreated with vehicle or AK inhibitor (10 mg/kg) by oral gavage or i.p. administration and the volume of the left hind paw was measured using a water displacement plethysmometer (Stoelting Co., Wood Dale, Ill.). One hour after oral treatment or 30 minutes after i.p. treatment, the rats were briefly anesthetized, and 0.1 ml of the carrageenan solution was injected subcutaneously into the planar surface of the left hind paw. The ensuing paw swelling was measured by plethysmometry after 3 hours. The paw volume in millileters was subtracted from the pre-injection paw volume. Data are presented as the percent inhibition of paw swelling in AK inhibitor treated animals, compared to vehicle treated control animals.
For orientation: In the carrageenan paw model, swelling and tenderness develop within hours.

Series [4] relates to male SA rats. In words: Anticonvulsant activity, maximal electroshock (MES) model. The settings on record: Rattus norvegicus, 1 h. It is filed as in vivo. How it is done:
The anticonvulsant activity of the tested compounds was evaluated in male SA rats (100-150 g, Simonsen) using the maximal electroshock (MES) model described in Swinyard et al., Antiepileptic Drugs, 3d Ed. at 85-102 (Levy, et al., eds.), N.Y.: Raven Press (1989). The rats were maintained on a 12/12 light/dark cycle in temperature controlled facilities with free access to food and water. For p.o. administration, the animals are fasted overnight, prior to the experiment. One hour prior to seizure testing, the animals were injected interperitoneally (ip) or orally (per os, […]) with one of various doses of test compound dissolved in DMSO or PEG 400.
This endpoint was expressed as the percentage of animals in which the response was inhibited.
(In general: The maximal electroshock test induces tonic seizures with an electrical stimulus.)

In series [5] the test system is Female SA rats. As to the kind of experiment: Liver toxicity assay. The settings on record: iv infusion 2 x 37.5 μmole/kg, 12 hours after second dose. The class given is in vivo, rat. How it is done:
Female SA rats (150-200 g) are anesthetized with halothane and cannulated via the internal jugular vein. The animals are allowed to recover for 3 days. At this time, 37.5 μmole/kg of an AK inhibitor is dissolved in 50% PEG400 and infused through the jugular catheter over 20 minutes. Twelve hours later, an additional 37.5 μmole/kg is infused over 20 minutes (total dose=75 μmole/kg). […] Liver enzymes (serum glutamic-oxaloacetic transaminase (SGOT), serum glutamic-pyruvic transaminase (SGPT), alkaline phosphatase) and total bilirubin in the serum samples are determined by a commercial laboratory.

For series [6], the system named is anesthetized rats. The settings on record: cited from earlier work.
Series [7] concerns mice. Conditions: cited from earlier work.
Setting [8] is: pH 4 (50 mM potassium biphthalate).
Setting [9] is: ip, 30 minutes before carrageenan.
The mark [10] stands for this setting: po, one hour before carrageenan.
Where [11] appears, read: po, one hour after dosing, fasted.

Sequence of partially purified pig heart adenosine kinase (A0A5G2R0F5 1-362): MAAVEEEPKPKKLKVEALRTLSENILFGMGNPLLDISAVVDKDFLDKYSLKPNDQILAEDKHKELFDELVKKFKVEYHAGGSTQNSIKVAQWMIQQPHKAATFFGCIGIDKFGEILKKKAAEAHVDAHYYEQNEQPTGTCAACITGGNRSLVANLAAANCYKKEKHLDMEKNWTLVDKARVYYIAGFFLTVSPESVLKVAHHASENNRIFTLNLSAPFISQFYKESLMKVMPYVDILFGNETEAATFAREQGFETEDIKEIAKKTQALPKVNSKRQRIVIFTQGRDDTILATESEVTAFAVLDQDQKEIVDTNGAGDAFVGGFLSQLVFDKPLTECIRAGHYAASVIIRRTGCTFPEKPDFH

For orientation: solubility means how much of the substance goes into solution per volume. A high value points to a readily soluble substance. In general, IC50 refers to the concentration at which inhibition is half-maximal. Turning to `CCN(CC)CCc1ccc(Nc2ncnc3c2c(-c2ccccc2)cn3[C@@H]2O[C@H](C)[C@@H](O)[C@H]2O)cc1` [Compound 6, 4-N[2-N,N-diethylaminoethylphenyl]amino-5-phenyl-7-(5-deoxy-β-D-ribofuranosyl)pyrrolo[2,3-d]pyrimidine], the solubility in series [1] (setting [8]) is above 1000 µg/mL. Besides, in series [2], the IC50 is 1 nM.
Turning to `C[C@H]1O[C@@H](n2cc(-c3ccccc3)c3c(Nc4ccc(C(N)=NO)cc4)ncnc32)[C@H](O)[C@@H]1O` [Compound 37, 4-N-(4-amidoximephenyl)amino-5-phenyl-7-(5-deoxy-1-β-D-ribofuranosylpyrrolo[2,3-d]pyrimidine hydrochloride], the IC50 in series [2] is 5 nM.
As for `C[C@H]1O[C@@H](n2cc(-c3cccnc3)c3c(Nc4ccccc4)ncnc32)[C@H](O)[C@@H]1O` [Compound 47, 4-N-Phenylamino-5-(3-pyridino)-7-(5-deoxy-1-β-D-ribofuranosyl) pyrrolo[2,3-d]pyrimidine], the IC50 in series [2] was 55 nM. Besides, the “Carrageenan Paw (% inhibition) of paw swelling” value (“Carrageenan Paw (% inhibition)” for short) in series [3] (setting [9]) was -4.4%; in series [3] (setting [10]), 9.8%.
Take `C[C@H]1O[C@@H](n2cc(I)c3c(NCc4nc5ccccc5[nH]4)ncnc32)[C@H](O)[C@@H]1O` [Compound 45, 4-N-(2-benzimidazolylmethyl)amino-5-iodo-7-(5-deoxy-1-β-D-ribofuranosyl) pyrrolo[(2,3-d)]pyrimidine]: the half-maximal inhibitory concentration (IC50) in series [2] amounted to 500 nM.
Turning to `C[C@H]1O[C@@H](n2cc(-c3ccccc3)c3c(Nc4ccc(CCN(C)C)cc4)ncnc32)[C@H](O)[C@@H]1O` [Compound 7, 4-N[2-N,N-dimethylaminoethylphenyl]amino-5-phenyl-7-(5-deoxy-β-D-fibofuranosyl)pyrrolo[2,3-d]pyrimidine], the solubility in series [1] (setting [8]) is above 1000 µg/mL. The IC50 in series [2] was found to be 1 nM. Also, the “Carrageenan Paw (% inhibition)” value amounted to 19.0% in series [3] (setting [9]) and 7.7% in series [3] (setting [10]).
Turning to `C[C@H]1O[C@@H](n2cc(-c3cccnc3)c3c(NCc4ccccn4)ncnc32)[C@H](O)[C@@H]1O` [Compound 48, 4-N-(2-pyridylmethyl)amino-5-(3-pyridino)-7-(5-deoxy-1-β-D-ribofuranosyl)pyrrolo[2,3-d]pyrimidine], the IC50 in series [2] turned out to be 300 nM.
For orientation: ED50 means the dose at which the effect has come halfway, by size or by number of responders. A high value points to a need for a large dose. With `C[C@H]1O[C@@H](n2cc(-c3ccccc3)c3c(Nc4ccc(CCN5CCOCC5)cc4)ncnc32)[C@H](O)[C@@H]1O` [Compound 3, 4-N[2-(4-morpholino)ethylphenyl]amino-5-phenyl-7-(5-deoxy-β-D-ribofuranosyl)pyrrolo[2,3-d]pyrimidine], the ED50 in series [4] (setting [11]) is above 40 mg/kg. Moreover, in series [1] (setting [8]), the solubility is above 1000 µg/mL. In addition, in series [2], the IC50 stood at 2 nM.
`C[C@H]1O[C@@H](n2cc(-c3ccccc3)c3c(Nc4ccc(CCN)cc4)ncnc32)[C@H](O)[C@@H]1O` [Compound 22, 4-N-(2-Aminoethylphenyl)amino-5-phenyl-7-(5-deoxy-β-D-ribofuranosyl)pyrrolo[2,3-d]pyrimidine] had a solubility in series [1] (setting [8]) above 1000 µg/mL. The figures for the “Carrageenan Paw (% inhibition)” value in series [3] (setting [9]) and in series [3] (setting [10]) were 31.6% and 12.4%, respectively.
In series [4] (setting [11]), `C[C@H]1O[C@@H](n2cc(-c3ccccc3)c3c(NCc4ccncc4)ncnc32)[C@H](O)[C@@H]1O` [Compound 49, 4-N-(4-pyridylmethyl)amino-5-phenyl-7-(5-deoxy-1-β-D-ribofuranosyl)-pyrrolo[2,3-d]pyrimidine] had an ED50 of 40 mg/kg. In addition, the IC50 in series [2] is 67 nM.
Compound `C[C@H]1O[C@@H](n2cc(I)c3c(NCc4ccncc4)ncnc32)[C@H](O)[C@@H]1O` [Compound 42, 4-N-(4-pyridylmethylamino)-5-iodo-7-(5-deoxy-1-β-D-ribofuranosyl)pyrrolo[2,3-d]pyrimidine] came in with an ED50 in series [4] (ip) of 2 mg/kg.
Take `NC[C@H]1O[C@@H](n2nc(Br)c3c(N)ncnc32)[C@H](O)[C@@H]1O` [REF. B, 4amino-1-(5-amino-5-deoxy-1-D-ribofuranosyl)-3-bromopyrazolo[3,4d]pyrimidne HCL]: in series [5], the “Alkaline Phosphatase” value is reported as 113 IU/L, the SGOT was determined as 100 IU/L, the SGPT is on record as 41 IU/L and the “Total Bilirubin” value is reported as 0.30 mg/dL.
Take `C[C@H]1O[C@@H](n2cc(-c3ccccc3)c3c(Nc4ccccc4)ncnc32)[C@H](O)[C@@H]1O` [5-phenyl-4-N-phenylamino-7-(5-deoxy-1-β-D-ribofuranosyl)pyrrolo[2,3-d]pyrimidine, reference compound]: the water solubility result in series [1] (pH suitable for i.v. administration (e.g. pH 4 to 10)) is recorded as “less than 20 μg/ml”.
On to `C[C@H]1O[C@@H](n2cc(I)c3c(N)ncnc32)[C@H](O)[C@@H]1O` [REF. A], for which, in series [5], the “Alkaline Phosphatase” value stood at 163 IU/L, the SGOT is listed as 508 IU/L, the SGPT is on record as 76 IU/L and the “Total Bilirubin” value is 0.76 mg/dL. In series [6], the blood pressure entry is listed as “decrease blood pressure”; the heart rate entry was “decrease blood pressure and heart rate”. Moreover, in series [7], the “general flaccidity (skeletal muscle relaxation)” value is “pronounced general flaccidity”, the hypothermia entry is “hypothermia” and the spontaneous locomotor activity entry is “much-reduced spontaneous locomotor activity”.
For the compound `C[C@H]1O[C@@H](n2cc(-c3ccccc3)c3c(Nc4ccc(CCN5CCNCC5)cc4)ncnc32)[C@H](O)[C@@H]1O` [Compound 4, 4-N[2-(1-piperazino)ethylphenyl]amino-5-phenyl-7-(5-deoxy-β-D-ribofuranosyl)pyrrolo[2,3-d]pyrimidine], in series [1] (setting [8]), the solubility was above 1000 µg/mL. The “Carrageenan Paw (% inhibition)” value in series [3] (setting [9]) was found to be 39.9%; in series [3] (setting [10]), 2.5%.
Regarding `CCN(CC)CCNCCc1ccc(Nc2ncnc3c2c(-c2ccccc2)cn3[C@@H]2O[C@H](C)[C@@H](O)[C@H]2O)cc1` [Compound 5, 4-N[2-(2-N,N-diethylaminoethyleneamino)ethylphenyl]amino-5-phenyl-7-(5-deoxy-β-D-ribofuranosyl)pyrrolo[2,3-d]pyrimidine], the solubility in series [1] (deionized water (DI)) was above 5000 µg/mL. The IC50 in series [2] amounted to 1 nM. In addition, the “Carrageenan Paw (% inhibition)” value is recorded as -3.4% in series [3] (setting [9]) and 4.1% in series [3] (setting [10]).
Consider `CC(=O)NS(=O)(=O)c1ccc(Nc2ncnc3c2c(-c2ccccc2)cn3[C@@H]2O[C@H](C)[C@@H](O)[C@H]2O)cc1` [Compound 40], for which the ED50 in series [4] (ip) is above 5 mg/kg. In series [1] (pH 9 (100 mM glycine)), this compound had a solubility above 1000 µg/mL. Moreover, the IC50 in series [2] turned out to be 3000 nM.
As to `C[C@H]1O[C@@H](n2cc(I)c3c(NCc4cccnc4)ncnc32)[C@H](O)[C@@H]1O` [Compound 44, 4-N-(3-pyridylmethylamino)-5-iodo-7-(5-deoxy-1-β-D-ribofuranosyl)pyrrolo[2,3-d]pyrimidine], the IC50 in series [2] was 120 nM.
The compound `C[C@H]1O[C@@H](n2cc(-c3ccccc3)c3c(Nc4ccc(NS(=O)(=O)C(F)(F)F)cc4)ncnc32)[C@H](O)[C@@H]1O` [Compound 8, 4-N-(4-N-trifluoromethanesulfonylaminophenyl)amino-5-phenyl-7-(5-deoxy-1-β-D-ribofuranosyl) pyrrolo(2,3-d)pyrimidine] came in with a solubility in series [1] (sodium carbonate/sodium bicarbonate buffer, pH 10 (25 mM sodium carbonate and 25 mM sodium bicarbonate)) above 1000 µg/mL.
For the compound `OC[C@@H]1O[C@@H](n2cc(I)c3c(NCc4ccccn4)ncnc32)[C@H](O)[C@@H]1O` [Compound 46, 4-N-(2-pyridylmethyl)amino-5-iodo-7-(α-L-lyxofuranosyl)pyrrolo(2,3-d)pyrimidine], in series [2], the IC50 came to 220 nM.
